Test results from patent US20030118577A1, “Use of analogues of superoxide dismutase for treating hepatocellular insufficiencies” (priority 2000, published 2003).

How the values were obtained:
[1] = system: acute hepatic insufficiency induced by acetaminophen; test: Survival of mice after intraperitoneal acetaminophen (acute hepatic insufficiency)
[2] = Glutathione peroxidase activity of the mimetic; assay type: biochemical; conditions: observed by the inventors

## O=C(O)c1ccc(-c2c3nc(c(-c4ccc(C(=O)O)cc4)c4ccc([n-]4)c(-c4ccc(C(=O)O)cc4)c4nc(c(-c5ccc(C(=O)O)cc5)c5ccc2[n-]5)C=C4)C=C3)cc1.[Mn+3] [MnTBAP, Mn(III) tetrakis(5,10,15,20-benzoic acid)porphyrin]
[1]; Group V: APAP 1000 mg/kg, MnTBAP 10 mg/kg (P), time 18 h
  percentage of surviving animals: 65.7%
[1]; Group V: APAP 1000 mg/kg, MnTBAP 10 mg/kg (P), time 20 h
  percentage of surviving animals: 65.7%
[1]; Group V: APAP 1000 mg/kg, MnTBAP 10 mg/kg (P), time 22 h
  percentage of surviving animals: 65.7%
[1]; Group V: APAP 1000 mg/kg, MnTBAP 10 mg/kg (P), time 24 h
  percentage of surviving animals: 62.9%
[1]; Group VI: APAP 1000 mg/kg, MnTBAP 20 mg/kg (P), time 0 h
  percentage of surviving animals: 100%
[1]; Group VI: APAP 1000 mg/kg, MnTBAP 20 mg/kg (P), time 6 h
  percentage of surviving animals: 100%
[1]; Group VI: APAP 1000 mg/kg, MnTBAP 20 mg/kg (P), time 8 h
  percentage of surviving animals: 100%
[1]; Group VI: APAP 1000 mg/kg, MnTBAP 20 mg/kg (P), time 9 h
  percentage of surviving animals: 100%
[1]; Group VI: APAP 1000 mg/kg, MnTBAP 20 mg/kg (P), time 10 h
  percentage of surviving animals: 100%
[1]; Group VI: APAP 1000 mg/kg, MnTBAP 20 mg/kg (P), time 11 h
  percentage of surviving animals: 100%
[1]; Group VI: APAP 1000 mg/kg, MnTBAP 20 mg/kg (P), time 12 h
  percentage of surviving animals: 100%
[1]; Group VI: APAP 1000 mg/kg, MnTBAP 20 mg/kg (P), time 13 h
  percentage of surviving animals: 100%
[1]; Group VI: APAP 1000 mg/kg, MnTBAP 20 mg/kg (P), time 14 h
  percentage of surviving animals: 100%
[1]; Group VI: APAP 1000 mg/kg, MnTBAP 20 mg/kg (P), time 15 h
  percentage of surviving animals: 90%
[1]; Group VI: APAP 1000 mg/kg, MnTBAP 20 mg/kg (P), time 16 h
  percentage of surviving animals: 90%
[1]; Group VI: APAP 1000 mg/kg, MnTBAP 20 mg/kg (P), time 17 h
  percentage of surviving animals: 90%
[1]; Group VI: APAP 1000 mg/kg, MnTBAP 20 mg/kg (P), time 18 h
  percentage of surviving animals: 90%
[1]; Group VI: APAP 1000 mg/kg, MnTBAP 20 mg/kg (P), time 20 h
  percentage of surviving animals: 90%
[1]; Group VI: APAP 1000 mg/kg, MnTBAP 20 mg/kg (P), time 22 h
  percentage of surviving animals: 90%
[1]; Group VI: APAP 1000 mg/kg, MnTBAP 20 mg/kg (P), time 24 h
  percentage of surviving animals: 90%
[1]; Group VII: APAP 1000 mg/kg, MnTBAP 10 mg/kg (C), time 0 h
  percentage of surviving animals: 100%
[1]; Group VII: APAP 1000 mg/kg, MnTBAP 10 mg/kg (C), time 6 h
  percentage of surviving animals: 100%
[1]; Group VII: APAP 1000 mg/kg, MnTBAP 10 mg/kg (C), time 8 h
  percentage of surviving animals: 100%
[1]; Group VII: APAP 1000 mg/kg, MnTBAP 10 mg/kg (C), time 9 h
  percentage of surviving animals: 100%
[1]; Group VII: APAP 1000 mg/kg, MnTBAP 10 mg/kg (C), time 10 h
  percentage of surviving animals: 94%
[1]; Group VII: APAP 1000 mg/kg, MnTBAP 10 mg/kg (C), time 11 h
  percentage of surviving animals: 94%
[1]; Group VII: APAP 1000 mg/kg, MnTBAP 10 mg/kg (C), time 12 h
  percentage of surviving animals: 81%
[1]; Group VII: APAP 1000 mg/kg, MnTBAP 10 mg/kg (C), time 13 h
  percentage of surviving animals: 69%
[1]; Group VII: APAP 1000 mg/kg, MnTBAP 10 mg/kg (C), time 14 h
  percentage of surviving animals: 69%
[1]; Group VII: APAP 1000 mg/kg, MnTBAP 10 mg/kg (C), time 15 h
  percentage of surviving animals: 69%
[1]; Group VII: APAP 1000 mg/kg, MnTBAP 10 mg/kg (C), time 16 h
  percentage of surviving animals: 56%
[1]; Group VII: APAP 1000 mg/kg, MnTBAP 10 mg/kg (C), time 17 h
  percentage of surviving animals: 56%
[1]; Group VII: APAP 1000 mg/kg, MnTBAP 10 mg/kg (C), time 18 h
  percentage of surviving animals: 56%
[1]; Group VII: APAP 1000 mg/kg, MnTBAP 10 mg/kg (C), time 20 h
  percentage of surviving animals: 56%
[1]; Group VII: APAP 1000 mg/kg, MnTBAP 10 mg/kg (C), time 22 h
  percentage of surviving animals: 56%
[1]; Group VII: APAP 1000 mg/kg, MnTBAP 10 mg/kg (C), time 24 h
  percentage of surviving animals: 44%
[1]; Group VIII: APAP 1000 mg/kg, MnTBAP 20 mg/kg (C), time 0 h
  percentage of surviving animals: 100%
[1]; Group VIII: APAP 1000 mg/kg, MnTBAP 20 mg/kg (C), time 6 h
  percentage of surviving animals: 100%
[1]; Group VIII: APAP 1000 mg/kg, MnTBAP 20 mg/kg (C), time 8 h
  percentage of surviving animals: 100%
[1]; Group VIII: APAP 1000 mg/kg, MnTBAP 20 mg/kg (C), time 9 h
  percentage of surviving animals: 100%
[1]; Group VIII: APAP 1000 mg/kg, MnTBAP 20 mg/kg (C), time 10 h
  percentage of surviving animals: 100%
[1]; Group VIII: APAP 1000 mg/kg, MnTBAP 20 mg/kg (C), time 11 h
  percentage of surviving animals: 100%
[1]; Group VIII: APAP 1000 mg/kg, MnTBAP 20 mg/kg (C), time 12 h
  percentage of surviving animals: 90%
[1]; Group VIII: APAP 1000 mg/kg, MnTBAP 20 mg/kg (C), time 13 h
  percentage of surviving animals: 90%
[1]; Group VIII: APAP 1000 mg/kg, MnTBAP 20 mg/kg (C), time 14 h
  percentage of surviving animals: 90%
[1]; Group VIII: APAP 1000 mg/kg, MnTBAP 20 mg/kg (C), time 15 h
  percentage of surviving animals: 90%
[1]; Group VIII: APAP 1000 mg/kg, MnTBAP 20 mg/kg (C), time 16 h
  percentage of surviving animals: 90%
[1]; Group VIII: APAP 1000 mg/kg, MnTBAP 20 mg/kg (C), time 17 h
  percentage of surviving animals: 80%
[1]; Group VIII: APAP 1000 mg/kg, MnTBAP 20 mg/kg (C), time 18 h
  percentage of surviving animals: 80%
[1]; Group VIII: APAP 1000 mg/kg, MnTBAP 20 mg/kg (C), time 20 h
  percentage of surviving animals: 70%
[1]; Group VIII: APAP 1000 mg/kg, MnTBAP 20 mg/kg (C), time 22 h
  percentage of surviving animals: 70%
[1]; Group VIII: APAP 1000 mg/kg, MnTBAP 20 mg/kg (C), time 24 h
  percentage of surviving animals: 70%
[1]; MnTBAP alone 10 mg/kg ip, no acetaminophen, 24 hours
  death of animals: No death
[2]
  glutathione peroxidase activity: possessed, in addition, a glutathione peroxidase activity
